This passage reports EC50 and IC50 results from patent US12202844B2, “MAP4K1 inhibitors” (Blueprint Medicines Corporation, priority 2021, dated 2025).

For experiment [1], the system named is Primary T Cell (expanded CD3+ T cells). The experiment in a line: T cell enhancement of cytokines: IL2 measurement (HTRF) in stimulated expanded CD3+ T cells. Format: cell-based, human. The conditions noted are these: plate-bound anti-CD3 and soluble anti-CD28, 24 h, IL2 by HTRF, read-out: IL-2 Primary T Cell EC50. Here is the method: T cells are isolated from whole blood of healthy donors by immunomagnetic negative selection following manufacture's protocol (StemCell Technologies, human T cell isolation kit). Purity of isolated cells is assessed by flow cytometry and yields 95-98% CD3^+ T cells. For expansion of T cells, 1×10^6 cells/well are plated in serum free cell expansion media (ThermoFisher) containing 30 U of recombinant human IL2 (R&D) and stimulated with 25 ul of CD3/CD28 beads (Invitrogen) in 24 well plates for 3-4 days. T cells are then expanded in 175 cm flasks and maintained at a cell density of 1 to 2.5×10^6 cells/ml days by addition of ⅔ of fresh media every 2-3 days. After 10-14 days, cells are frozen in BamBanker freezing media (Thermo) and stored in liquid nitrogen.
For IL2 measurement, expanded CD3^+ T cells are dispensed at 100K cells/well (cultured in X-VIVO 10 Serum-free media) and are stimulated with plate-bound anti-CD3 and soluble anti-CD28 in the presence of vehicle or compound of the disclosure at various concentrations for 24 h. As outlined in the manufacturer's protocol (Cisbio), 16 μL of conditioned media is transferred to a white 384-well low volume plate. Following a 24 h incubation with the anti-IL2 antibodies, the homogenous time resolved fluorescence (HTRF) is measured.

Experiment [2] deals with T1, MAP4K1 (HPK1) (Homo sapiens, UniProt Q92918).
T1 construct: purchased Invitrogen
T1 sequence (Q92918 whole entry): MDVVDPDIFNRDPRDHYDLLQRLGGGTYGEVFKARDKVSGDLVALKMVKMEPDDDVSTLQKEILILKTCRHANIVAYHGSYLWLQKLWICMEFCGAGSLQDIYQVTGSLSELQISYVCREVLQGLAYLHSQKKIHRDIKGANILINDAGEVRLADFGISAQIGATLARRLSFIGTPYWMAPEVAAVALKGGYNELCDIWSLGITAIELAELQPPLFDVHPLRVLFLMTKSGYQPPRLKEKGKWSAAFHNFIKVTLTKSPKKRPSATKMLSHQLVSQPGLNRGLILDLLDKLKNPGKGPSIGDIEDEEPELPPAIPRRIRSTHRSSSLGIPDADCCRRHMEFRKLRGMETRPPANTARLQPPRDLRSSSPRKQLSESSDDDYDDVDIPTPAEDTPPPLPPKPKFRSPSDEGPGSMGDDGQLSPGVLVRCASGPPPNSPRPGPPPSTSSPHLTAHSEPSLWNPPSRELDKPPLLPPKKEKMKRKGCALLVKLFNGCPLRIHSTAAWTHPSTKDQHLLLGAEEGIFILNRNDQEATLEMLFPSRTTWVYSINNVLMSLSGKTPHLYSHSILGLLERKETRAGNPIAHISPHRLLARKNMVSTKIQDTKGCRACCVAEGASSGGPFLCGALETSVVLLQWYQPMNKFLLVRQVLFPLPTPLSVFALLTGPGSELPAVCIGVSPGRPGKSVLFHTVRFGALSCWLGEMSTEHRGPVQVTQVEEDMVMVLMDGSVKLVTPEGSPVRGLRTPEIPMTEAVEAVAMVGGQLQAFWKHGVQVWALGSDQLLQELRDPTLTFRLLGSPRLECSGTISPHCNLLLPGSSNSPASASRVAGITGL
The experiment in a line: Inhibition of MAP4K1 biochemical enzymatic activity (EZReader 2 electrophoretic mobility shift). The conditions noted are these: HPK1 (Invitrogen), S6K2tide 1.5 μM, 120 min; ATP 26 μM or 1000 μM (not given). Summed up: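 Untreated enzyme (0.1-15 nM) was incubated with 1.5 μM fluorescent peptide and 20-1000 μM ATP (apparent Km or 1 mM) in HEPES pH 7.5, MgCl2, DTT, Brij 35 at 25° C. for 60-180 min, with 1% DMSO and a 10-point 4-fold compound series. After an EDTA stop, product/substrate peptide peak ratio was read by mobility shift.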
(In EMSA bound probe runs differently from free probe, usually more slowly.)

Usually EC50 stands for the concentration giving half of the maximal effect. Broadly, the IC50 is the point on the concentration scale where inhibition reaches its midpoint.

Where two headings read alike, the source gives them in different places.

Consider `CC[C@@](C)(N)c1cnc(O[C@H](C)CCS(=O)(=O)CC)c2cnc(Nc3ccc4c(n3)[C@@H](C)[C@H](C)OC4=O)cc12` (single isomer, unassigned) [Compound 92], for which, in experiment [1] (Homo sapiens, T-cell, 24 h), the EC50 amounted to 15 nM. Also, in experiment [2], the IC50 is 0.14 nM.
With `CC[C@@](C)(N)c1cnc(O[C@H](C)CCS(=O)(=O)CC)c2cnc(Nc3ccc4c(n3)[C@@H](C)[C@H](C)OC4=O)cc12` (single isomer, unassigned) [Compound 93], the EC50 in experiment [1] worked out at 9 nM. Also, the IC50 in experiment [2] worked out at 0.19 nM.
On to `CCS(=O)(=O)CC[C@@H](C)Oc1ncc(C(C)(C)N)c2cc(Nc3ccc4c(n3)[C@@H](C)C(C)(C)OC4=O)ncc12` (single isomer, unassigned) [Compound 98], for which the EC50 in experiment [1] (Homo sapiens, T-cell, 24 h) turned out to be 67 nM. For the same compound, the half-inhibitory concentration (IC50) in experiment [2] amounted to 0.23 nM.
With `CCS(=O)(=O)CC[C@@H](C)Oc1ncc(C(C)(C)N)c2cc(Nc3ccc4c(n3)[C@@H](C)C(C)(C)OC4=O)ncc12` (single isomer, unassigned) [Compound 99], the EC50 in experiment [1] stood at 72 nM. For the same compound, the IC50 in experiment [2] came out at 0.39 nM.
With `CC[C@@](C)(N)c1cnc(O[C@H](C)C[C@@H](C)S(C)(=O)=O)c2cnc(Nc3ccc4c(n3)C3(CC3)[C@@H](C)OC4=O)cc12` (single isomer, unassigned) [Compound 104], in experiment [1] (Homo sapiens, T-cell, 24 h), the EC50 amounted to 10 nM. The IC50 in experiment [2] amounted to 0.17 nM.
On to `C[C@H](C[C@@H](C)S(C)(=O)=O)Oc1ncc([C@H](N)C2CC2)c2cc(Nc3ccc4c(n3)[C@@H](C)C(C)(C)OC4=O)ncc12` (single isomer, unassigned) [Compound 110], for which the EC50 in experiment [1] (Homo sapiens, T-cell, 24 h) worked out at 36 nM. The half-maximal inhibitory concentration (IC50) in experiment [2] amounted to 0.22 nM.
Take `CCS(=O)(=O)C[C@H]1C[C@@H](Oc2ncc(C(C)(C)N)c3cc(Nc4ccc5c(n4)[C@@H](C)C(C)(C)OC5=O)ncc23)C1` (single isomer, unassigned) [Compound 112]: in experiment [1] (Homo sapiens, T-cell, 24 h), the EC50 came to 25 nM. Besides, the IC50 in experiment [2] is 0.13 nM.
Regarding `CCC[C@@H](N)c1cnc(O[C@H]2C[C@@H](S(=O)(=O)CC)C2)c2cnc(Nc3ccc4c(n3)[C@@H](C)C(C)(C)OC4=O)cc12` (single isomer, unassigned) [Compound 115], the EC50 in experiment [1] (Homo sapiens, T-cell, 24 h) was determined as 59 nM. Also, the IC50 in experiment [2] is 0.33 nM.
For the compound `CCC[C@@](C)(N)c1cnc(O[C@H](C)CCS(C)(=O)=O)c2cnc(Nc3ccc4c(n3)[C@@H](C)C(C)(C)OC4=O)cc12` (single isomer, unassigned) [Compound 126], in experiment [1] (Homo sapiens, T-cell, 24 h), the EC50 was 21 nM. For the same compound, the IC50 in experiment [2] stood at 0.17 nM.
As to `CC[C@@](C)(N)c1cnc(O[C@H](C)CCS(=O)(=O)CC)c2cnc(Nc3ccc4c(n3)[C@@H](C)C(C)(C)OC4=O)cc12` (single isomer, unassigned) [Compound 133], the EC50 in experiment [1] (Homo sapiens, T-cell, 24 h) came to 23 nM. The IC50 in experiment [2] was determined as 0.2 nM.
Consider `CCS(=O)(=O)[C@H](C)C[C@@H](C)Oc1ncc([C@H](N)C2CC2)c2cc(Nc3ccc4c(n3)[C@@H](C)C(C)(C)OC4=O)ncc12` (single isomer, unassigned) [Compound 138], for which the EC50 in experiment [1] (Homo sapiens, T-cell, 24 h) came out at 38 nM. Besides, in experiment [2], the IC50 was 0.3 nM.
Regarding `CC[C@@](C)(N)c1cnc(O[C@@H](C)CCS(C)(=O)=O)c2cnc(Nc3ccc4c(n3)[C@@H](C)[C@@H](C)OC4=O)cc12` (single isomer, unassigned) [Compound 148], the EC50 in experiment [1] (Homo sapiens, T-cell, 24 h) was 26 nM. Also, the IC50 in experiment [2] came to 0.57 nM.
In the case of `CC[C@@](C)(N)c1cnc(O[C@@H]2C[C@H](S(C)(=O)=O)[C@H]2C)c2cnc(Nc3ccc4c(n3)[C@@H](C)[C@H](C)OC4=O)cc12` (single isomer, unassigned) [Compound 150], the EC50 in experiment [1] (Homo sapiens, T-cell, 24 h) was 14 nM. The IC50 in experiment [2] was determined as 0.32 nM.
For the compound `CC[C@@](C)(N)c1cnc(O[C@@H]2C[C@H](S(C)(=O)=O)[C@H]2C)c2cnc(Nc3ccc4c(n3)[C@@H](C)[C@H](C)OC4=O)cc12` (single isomer, unassigned) [Compound 151], the EC50 in experiment [1] turned out to be 9 nM. Besides, the IC50 in experiment [2] is 0.16 nM.
In the case of `CC[C@@](C)(N)c1cnc(O[C@H](C)C[C@@H](C)S(C)(=O)=O)c2cnc(Nc3ccc4c(n3)[C@@H](C)[C@@H](C)OC4=O)cc12` (single isomer, unassigned) [Compound 152], the EC50 in experiment [1] (Homo sapiens, T-cell, 24 h) was determined as 11 nM. Moreover, the IC50 in experiment [2] is 0.29 nM.
Regarding `CC[C@@](C)(N)c1cnc(O[C@H](C)CCS(C)(=O)=O)c2cnc(Nc3ccc4c(n3)[C@@H](C)[C@@H](C)OC4=O)cc12` (single isomer, unassigned) [Compound 153], the EC50 in experiment [1] (Homo sapiens, T-cell, 24 h) is 25 nM. Further, the IC50 in experiment [2] worked out at 0.27 nM.
On to `C[C@@H]1OC(=O)c2ccc(Nc3cc4c(C(C)(C)N)cnc(O[C@@H](C)C[C@@H]5CCCS5(=O)=O)c4cn3)nc2[C@H]1C` (single isomer, unassigned) [Compound 155], for which the EC50 in experiment [1] (Homo sapiens, T-cell, 24 h) stood at 17 nM. The IC50 in experiment [2] turned out to be 0.37 nM.
As to `C[C@@H]1c2nc(Nc3cc4c(C(C)(C)N)cnc(OCCC[S@](C)(=N)=O)c4cn3)ccc2C(=O)OC1(C)C` (single isomer, unassigned) [Compound 168], the EC50 in experiment [1] (Homo sapiens, T-cell, 24 h) stood at 35 nM. Further, in experiment [2], the IC50 worked out at 0.26 nM.
As for `CC[C@@H](N)c1cnc(O[C@H]2C[C@@H](S(C)(=O)=O)C2)c2cnc(Nc3ccc4c(n3)[C@@H](C)C(C)(C)OC4=O)cc12` (single isomer, unassigned) [Compound 176], the EC50 in experiment [1] (Homo sapiens, T-cell, 24 h) was 69 nM. Further, the IC50 in experiment [2] was determined as 0.23 nM.
Take `CC[C@@](C)(N)c1cnc(O[C@H](C)C[C@@H](C)[S@](C)(=N)=O)c2cnc(Nc3ccc4c(n3)C3(CC3)[C@@H](C)OC4=O)cc12` (single isomer, unassigned) [Compound 181]: the EC50 in experiment [1] (Homo sapiens, T-cell, 24 h) came to 85 nM. Further, the IC50 in experiment [2] was 0.18 nM.
As to `CC[C@@](C)(N)c1cnc(O[C@H](C)C[C@@H](C)[S@@](C)(=N)=O)c2cnc(Nc3ccc4c(n3)C(C)(C)[C@@H](C)OC4=O)cc12` (single isomer, unassigned) [Compound 182], the EC50 in experiment [1] worked out at 21 nM. The IC50 in experiment [2] was found to be 0.16 nM.
Take `CC[C@@](C)(N)c1cnc(O[C@H](C)C[C@@H](C)[S@@](C)(=N)=O)c2cnc(Nc3ccc4c(n3)C(C)(C)[C@@H](C)OC4=O)cc12` (single isomer, unassigned) [Compound 183]: the EC50 in experiment [1] was 43 nM. The half-inhibitory concentration (IC50) in experiment [2] was 0.16 nM.
With `CC[C@@](C)(N)c1cnc(O[C@H](C)C[C@@H](C)S(C)(=O)=O)c2cnc(Nc3ccc4c(n3)C(C)(C)[C@H](C)OC4=O)cc12` (single isomer, unassigned) [Compound 186], the EC50 in experiment [1] (Homo sapiens, T-cell, 24 h) stood at 15 nM. For the same compound, the IC50 in experiment [2] amounted to 0.15 nM.
For the compound `C[C@@H]1c2nc(Nc3cc4c(C(C)(C)N)cnc(OC5CS(=O)(=O)C5)c4cn3)ccc2C(=O)OC1(C)C` [Compound 3], the EC50 in experiment [1] (Homo sapiens, T-cell, 24 h) was 39 nM. In addition, in experiment [2], the IC50 was determined as 0.12 nM.
With `C[C@@H]1OC(=O)c2cc(Nc3cncc4c(OCCCS(C)(=O)=O)ncc(C(C)(C)N)c34)cnc2[C@H]1C` [Compound 7], in experiment [1] (Homo sapiens, T-cell, 24 h), the EC50 worked out at 11 nM. Also, in experiment [2], the IC50 was 0.28 nM.
As for `CC(C)(N)c1cnc(O[C@H]2C[C@@H](S(C)(=O)=O)C2)c2cnc(Nc3ccc4c(n3)C(C)(C)COC4=O)cc12` [Compound 11], the EC50 in experiment [1] (Homo sapiens, T-cell, 24 h) was found to be 39 nM. Moreover, the IC50 in experiment [2] was 0.29 nM.
The corresponding values for `C[C@@H]1OC(=O)c2ccc(Nc3cc4c(C(C)(C)N)cnc(O[C@H]5C[C@@H](S(C)(=O)=O)C5)c4cn3)nc2[C@H]1C` [Compound 13] are 15 nM and 0.12 nM.
The corresponding values for `C[C@@H]1OC(=O)c2ccc(Nc3cc4c(C(C)(C)N)cnc(OC5CN(S(C)(=O)=O)C5)c4cn3)nc2[C@H]1C` [Compound 15] are 13 nM and 0.1 nM.
On the same counts, the results for `C[C@@H]1c2nc(Nc3cc4c(C(C)(C)N)ccc(O[C@H]5C[C@@H](S(C)(=O)=O)C5)c4cn3)ccc2C(=O)OC1(C)C` [Compound 27] are 15 nM and 0.08 nM.
Take `C[C@@H]1c2nc(Nc3cc4c(C(C)(C)N)cnc(N[C@H]5C[C@@H](S(C)(=O)=O)C5)c4cn3)ccc2C(=O)OC1(C)C` [Compound 28]: the EC50 in experiment [1] (Homo sapiens, T-cell, 24 h) came out at 250 nM. Besides, the IC50 in experiment [2] amounted to 0.14 nM.
On to `CC[C@@](C)(N)c1cnc(O[C@H]2C[C@@H](S(C)(=O)=O)C2)c2cnc(Nc3ccc4c(n3)[C@@H](C)[C@H](C)OC4=O)cc12` [Compound 38], for which, in experiment [1] (Homo sapiens, T-cell, 24 h), the EC50 is 5 nM. Further, the IC50 in experiment [2] is 0.12 nM.
In the case of `CCS(=O)(=O)[C@H]1C[C@@H](Oc2ncc(C(C)(C)N)c3cc(Nc4ccc5c(n4)[C@@H](C)[C@H](C)OC5=O)ncc23)C1` [Compound 39, (7S,8R)-2-((5-(2-Aminopropan-2-yl)-8-((cis)-3-(ethylsulfonyl)cyclobutoxy)-2,7-naphthyridin-3-yl)amino)-7,8-dimethyl-7,8-dihydro-5H-pyrano[4,3-b]pyridin-5-one], the EC50 in experiment [1] (Homo sapiens, T-cell, 24 h) worked out at 11 nM. Moreover, the IC50 in experiment [2] turned out to be 0.13 nM.
